Calls of active or inactive are those of the source.
Legend:
[1] = Luminescence Cell-Based Dose Retest to Confirm Inhibitors of Cancer Stem Cells. [Related pubchem assays (depositor defined):AID2717, AID2721]; assay type: functional; conditions: Homo sapiens
Protein skinhead-1 = target: T1, Protein skinhead-1 (Caenorhabditis elegans, UniProt P34707); assay type: functional
T1 sequence (P34707 whole entry): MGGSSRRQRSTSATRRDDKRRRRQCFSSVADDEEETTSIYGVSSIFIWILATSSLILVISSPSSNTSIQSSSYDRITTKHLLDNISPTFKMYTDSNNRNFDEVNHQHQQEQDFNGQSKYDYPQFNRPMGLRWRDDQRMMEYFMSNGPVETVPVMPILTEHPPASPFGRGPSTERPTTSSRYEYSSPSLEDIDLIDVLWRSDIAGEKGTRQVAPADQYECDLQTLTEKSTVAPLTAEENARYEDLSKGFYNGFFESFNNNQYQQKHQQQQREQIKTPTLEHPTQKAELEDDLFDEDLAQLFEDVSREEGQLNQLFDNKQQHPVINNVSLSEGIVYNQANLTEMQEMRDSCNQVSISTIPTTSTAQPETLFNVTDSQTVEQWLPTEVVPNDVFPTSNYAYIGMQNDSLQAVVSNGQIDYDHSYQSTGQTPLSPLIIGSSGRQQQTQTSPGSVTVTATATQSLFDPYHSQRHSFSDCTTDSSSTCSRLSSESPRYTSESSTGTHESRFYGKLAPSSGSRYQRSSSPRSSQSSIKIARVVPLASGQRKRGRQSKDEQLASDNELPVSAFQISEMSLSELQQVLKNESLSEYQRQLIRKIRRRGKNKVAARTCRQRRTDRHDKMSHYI

Cytochrome P450 2D6 = Cytochrome P450 2D6 (Homo sapiens, UniProt P10635);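 also: CYP2D6 member of a cytochrome P450 panel assay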
[2] = target: T2, Heat shock factor protein 1 (Mus musculus, UniProt P38532); experiment: enhancement of HSF1-driven luciferase signal – cell-based, NIH3T3, luminescence, dose retest, confirmation (AID 435004); assay type: functional;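 also: stress induced by proteasome inhibitor MG132 added 30 min after compound; luciferase reporter driven by HSF1 response element in NIH3T3 cells; actives raise luminescence as potentiators of the MG132 stress response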
T2 sequence (P38532 whole entry): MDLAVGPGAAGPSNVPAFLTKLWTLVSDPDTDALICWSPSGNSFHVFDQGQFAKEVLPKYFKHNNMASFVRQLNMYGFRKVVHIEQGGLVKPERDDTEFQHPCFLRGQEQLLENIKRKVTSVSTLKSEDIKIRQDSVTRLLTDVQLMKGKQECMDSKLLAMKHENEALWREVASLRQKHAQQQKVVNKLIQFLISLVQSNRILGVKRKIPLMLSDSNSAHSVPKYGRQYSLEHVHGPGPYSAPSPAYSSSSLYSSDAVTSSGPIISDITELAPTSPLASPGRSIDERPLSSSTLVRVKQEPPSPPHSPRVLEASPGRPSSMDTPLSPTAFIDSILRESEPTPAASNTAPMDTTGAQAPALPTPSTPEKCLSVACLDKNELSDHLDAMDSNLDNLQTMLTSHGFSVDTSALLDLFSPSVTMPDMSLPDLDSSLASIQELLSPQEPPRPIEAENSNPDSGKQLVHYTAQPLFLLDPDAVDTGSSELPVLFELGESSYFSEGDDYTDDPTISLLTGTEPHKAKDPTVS

H9c2 = experiment: cells; assay type: functional, cell-based; conditions: Rattus norvegicus, H9c2, Myocardium;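 also: confirmatory concentration-response retest of ultra-high-throughput screening hits for modulation of myocardial damage; cell death induced by hydrogen peroxide oxidative stress; compound pretreatment for 60 min then peroxide exposure for 2 h; potency is for protecting the cells against peroxide damage rather than for killing them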
Cytochrome P450 2C19 = Cytochrome P450 2C19 (Homo sapiens, UniProt P33261); experiment: Cytochrome panel assay with activity outcomes. Panel member name: p450-cyp2c19 Compounds with AC50 equal or less than 10 uM are considered active; assay type: functional
Cytochrome P450 3A4 = Cytochrome P450 3A4 (Homo sapiens, UniProt P08684);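 also: CYP3A4 tested as one member of a cytochrome P450 panel screen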
[3] = Trypanosoma cruzi growth suppression in host cells – NIH3T3 host cells, beta-gal luminescence, confirmation (AID 2044); assay type: functional, cell-based;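 also: intracellular parasites grown in NIH/3T3 mouse fibroblasts as host cells; luminescent beta-galactosidase reporter signal from transgenic T. cruzi replicating inside host cells; inhibitors lower the luminescence signal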
[4] = NIH3T3 cell viability loss – ATP luminescence, mouse fibroblasts, counter-screen, dose response (AID 2010); assay type: functional, cell-based;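 also: cells exposed to compound for about 90 hours before reading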
INS1 = experiment: INS-1E survival protection against cytokine death – cell-based, luminescence, retest, dose response (AID 449756); assay type: functional; conditions: Rattus norvegicus;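 also: cell death triggered by IL-1 beta plus TNF-alpha plus IFN-gamma mixture; protective hits raise ATP signal compared with cytokine alone wells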
Cytochrome P450 1A2 = target: T3, Cytochrome P450 1A2 (Homo sapiens, UniProt P05177);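 also: PubChem cytochrome P450 panel assay, CYP1A2 panel member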
T3 sequence (P05177 whole entry): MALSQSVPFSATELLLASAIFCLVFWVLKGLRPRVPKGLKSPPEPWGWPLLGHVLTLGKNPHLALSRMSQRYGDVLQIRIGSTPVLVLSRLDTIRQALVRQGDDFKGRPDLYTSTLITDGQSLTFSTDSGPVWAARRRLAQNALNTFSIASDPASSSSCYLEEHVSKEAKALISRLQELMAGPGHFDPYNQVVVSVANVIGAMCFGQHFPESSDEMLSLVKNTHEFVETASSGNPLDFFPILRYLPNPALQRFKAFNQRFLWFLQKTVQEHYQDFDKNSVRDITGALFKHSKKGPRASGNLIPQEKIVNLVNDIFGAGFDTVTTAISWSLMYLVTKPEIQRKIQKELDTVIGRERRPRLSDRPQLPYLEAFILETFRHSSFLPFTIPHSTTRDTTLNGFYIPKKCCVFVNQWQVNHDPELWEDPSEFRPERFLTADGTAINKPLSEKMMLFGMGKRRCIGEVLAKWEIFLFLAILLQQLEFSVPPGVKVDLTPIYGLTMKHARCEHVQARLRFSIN

[5] = viability of uninfected HEp-2 cells – cell-based, HTS, cytotoxicity control for RSV inhibitor project, dose response (AID 2410); assay type: functional; conditions: human respiratory syncytial virus
[6] = Luminescence Cell-Based Dose Confirmation HTS to Identify Activators of 5'UTR Stem-Loop Driven Alpha-Synuclein mRNA Translation in H4 Neuroglioblastoma Cells. [Related pubchem assays: 1829 (Project Summary), 1814 (Primary HTS)]; assay type: functional
[7] = Luminescence Cell-Based Dose Response HTS to Identify Activators of Luciferase Translation or Activity in H4 […] Cells. [Related pubchem assays: 1829 (Project Summary), 1814 (Primary HTS)]; assay type: functional
H4 = experiment: Luminescence Cell-Based Dose Response HTS to Identify Activators of 5'UTR Stem-Loop Driven Prion Protein mRNA Translation in H4 Neuroglioblastoma Cells. [Related pubchem assays: 1829 (Project Summary), 1814 (Primary HTS)]; assay type: functional; conditions: Homo sapiens
[8] = tested on: Streptococcus sp. 'group A'; experiment: Streptococcus pyogenes SK(-)GAS viability under kanamycin – luminescence, BacTiterGlo, confirmation, counter-screen for streptokinase expression inhibitor project, dose response (AID 1900); assay type: functional, organism-based
Streptokinase A = target: T4, Streptokinase A (Streptococcus pyogenes serotype M1, UniProt P10520); experiment: viability-normalized secreted streptokinase activity reduction – plasminogen activation absorbance, OD405, dose response (AID 1914); assay type: functional, Streptococcus pyogenes M1 GAS;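 also: secreted streptokinase activity via plasminogen activation per viability signal from cell pellet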
T4 sequence (P10520 whole entry): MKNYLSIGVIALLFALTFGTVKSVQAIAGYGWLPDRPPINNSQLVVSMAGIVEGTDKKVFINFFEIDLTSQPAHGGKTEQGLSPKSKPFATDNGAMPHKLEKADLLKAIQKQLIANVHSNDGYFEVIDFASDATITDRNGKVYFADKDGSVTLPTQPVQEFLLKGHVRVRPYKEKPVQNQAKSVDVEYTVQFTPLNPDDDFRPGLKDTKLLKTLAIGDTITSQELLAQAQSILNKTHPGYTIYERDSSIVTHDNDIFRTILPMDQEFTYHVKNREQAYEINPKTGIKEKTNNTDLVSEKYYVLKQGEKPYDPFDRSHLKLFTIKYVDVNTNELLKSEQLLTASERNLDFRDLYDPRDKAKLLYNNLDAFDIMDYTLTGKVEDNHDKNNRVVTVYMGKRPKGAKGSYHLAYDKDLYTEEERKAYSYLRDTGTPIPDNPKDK

Streptococcus = experiment: GAS UMAA2166 growth inhibition – luminescence, BacTiterGlo, counter-screen for streptokinase expression inhibitor project, dose response (AID 1915); assay type: functional, organism-based;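 also: potency for reduction of bacterial viability or growth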
Cytochrome P450 2C9 = Cytochrome P450 2C9 (Homo sapiens, UniProt P11712)
[9] = target: T2, Heat shock factor protein 1; experiment: decrease of HSF1-responsive luciferase luminescence – cell-based, NIH3T3, dose retest, confirmation (AID 2382); assay type: functional;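 also: NIH3T3 fibroblasts with HSF1-driven luciferase reporter stressed by proteasome inhibitor MG132; luminescence from HSF1-driven luciferase expression after 8 hours of MG132 stress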

Chain of Cytochrome P450 3A4 (P08684 whole entry): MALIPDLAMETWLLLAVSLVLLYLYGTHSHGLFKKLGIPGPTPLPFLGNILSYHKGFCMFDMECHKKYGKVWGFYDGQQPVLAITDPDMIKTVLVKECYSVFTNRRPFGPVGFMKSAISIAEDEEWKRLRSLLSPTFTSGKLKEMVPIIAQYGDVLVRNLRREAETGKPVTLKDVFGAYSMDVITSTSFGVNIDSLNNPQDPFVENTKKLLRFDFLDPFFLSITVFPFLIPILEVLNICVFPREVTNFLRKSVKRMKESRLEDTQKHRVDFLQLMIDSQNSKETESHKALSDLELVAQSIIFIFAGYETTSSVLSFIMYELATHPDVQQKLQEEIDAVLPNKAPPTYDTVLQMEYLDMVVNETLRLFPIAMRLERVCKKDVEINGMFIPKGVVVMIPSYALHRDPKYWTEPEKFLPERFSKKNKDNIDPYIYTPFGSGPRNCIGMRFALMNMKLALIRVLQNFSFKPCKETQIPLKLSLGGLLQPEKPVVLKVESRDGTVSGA
Chain of Cytochrome P450 2D6 (P10635 whole entry): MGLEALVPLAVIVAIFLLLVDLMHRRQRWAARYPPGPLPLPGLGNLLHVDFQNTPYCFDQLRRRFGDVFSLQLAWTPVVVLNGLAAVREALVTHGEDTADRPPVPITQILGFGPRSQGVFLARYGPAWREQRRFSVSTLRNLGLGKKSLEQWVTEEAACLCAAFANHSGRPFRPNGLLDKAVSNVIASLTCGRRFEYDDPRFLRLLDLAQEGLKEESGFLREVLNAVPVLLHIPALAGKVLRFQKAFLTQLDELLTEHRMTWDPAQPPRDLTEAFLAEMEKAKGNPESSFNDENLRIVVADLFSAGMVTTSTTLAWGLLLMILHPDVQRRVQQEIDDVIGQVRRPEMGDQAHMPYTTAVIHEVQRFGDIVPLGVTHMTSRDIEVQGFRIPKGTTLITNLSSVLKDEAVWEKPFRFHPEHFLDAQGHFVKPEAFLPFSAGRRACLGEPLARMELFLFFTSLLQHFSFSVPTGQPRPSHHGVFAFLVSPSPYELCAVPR
Chain of Cytochrome P450 2C19 (P33261 whole entry): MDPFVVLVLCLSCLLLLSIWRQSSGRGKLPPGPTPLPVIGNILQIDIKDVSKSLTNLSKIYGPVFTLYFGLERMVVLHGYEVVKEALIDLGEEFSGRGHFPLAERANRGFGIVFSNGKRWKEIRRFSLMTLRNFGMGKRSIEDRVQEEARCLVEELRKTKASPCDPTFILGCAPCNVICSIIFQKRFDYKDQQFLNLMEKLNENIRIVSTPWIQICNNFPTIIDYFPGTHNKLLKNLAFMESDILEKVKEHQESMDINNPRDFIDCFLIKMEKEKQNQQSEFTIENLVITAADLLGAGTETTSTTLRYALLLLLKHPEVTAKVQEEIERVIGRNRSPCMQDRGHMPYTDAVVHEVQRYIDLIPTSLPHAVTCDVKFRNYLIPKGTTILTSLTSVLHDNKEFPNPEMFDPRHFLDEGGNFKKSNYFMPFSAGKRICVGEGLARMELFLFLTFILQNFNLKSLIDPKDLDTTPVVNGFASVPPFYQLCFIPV
Chain of Cytochrome P450 2C9 (P11712 whole entry): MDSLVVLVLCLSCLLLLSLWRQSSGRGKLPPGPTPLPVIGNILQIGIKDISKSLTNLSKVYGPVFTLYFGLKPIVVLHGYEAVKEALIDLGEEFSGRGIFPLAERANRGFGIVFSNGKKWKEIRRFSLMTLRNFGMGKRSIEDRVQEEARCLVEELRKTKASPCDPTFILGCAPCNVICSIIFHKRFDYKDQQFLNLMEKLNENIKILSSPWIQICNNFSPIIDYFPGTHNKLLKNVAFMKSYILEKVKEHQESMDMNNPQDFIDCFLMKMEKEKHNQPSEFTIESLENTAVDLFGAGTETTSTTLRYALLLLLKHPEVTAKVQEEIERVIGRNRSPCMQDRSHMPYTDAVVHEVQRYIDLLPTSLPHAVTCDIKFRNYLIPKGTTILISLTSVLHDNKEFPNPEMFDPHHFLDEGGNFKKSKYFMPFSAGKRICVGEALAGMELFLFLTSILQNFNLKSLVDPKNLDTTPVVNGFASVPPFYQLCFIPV

SMILES: O=C(Nc1cccc(-c2csc(Nc3ccccc3)n2)c1)c1ccccc1
- AC50 [1]: 2.96 µM (active)
- IC50 (Protein skinhead-1): > 100 µM (inactive)

SMILES: COC(=O)[C@@]1(Cc2ccccc2)[C@H]2c3cc(C(=O)N4CCCC4)n(Cc4ccc(OC)c(OC)c4)c3C[C@H]2CN1C(=O)c1ccccc1
- AC50 (Cytochrome P450 2D6): 31.6 µM (inconclusive)

SMILES: CCCC12CN3CC(C)(CN(C1)C3c1ccc3c(c1)OCO3)C2=O (stereo not drawn)
- EC50 [2]: > 260 µM (inactive)

SMILES: CCN(CC)S(=O)(=O)c1cc([N+](=O)[O-])ccc1NNC(=O)Nc1ccccc1OC
- EC50 [2]: > 260 µM (inactive)

SMILES: Cc1ccc(NN/C=C2\C(=O)NC(=O)N(c3ccccc3)C2=O)cc1
- AC50 [1]: 2.35 µM (active)

SMILES: Cc1sc2nc(SCC(=O)N(C)C)nc(O)c2c1C
- IC50 (H9c2): 22.3 µM (active)

SMILES: CCC(C)N1C(=O)S/C(=C/c2ccc3c(c2)n(C)c(=O)n3C)C1=O (stereo not drawn)
- IC50 (H9c2): > 79 µM (inactive)

SMILES: NCCSc1nc2ccccc2s1
- AC50 (Cytochrome P450 2D6): 3.98 µM (inconclusive)

SMILES: CC1(C)CC(=O)C(C2C3=C(CC(C)(C)CC3=O)OC3=C2C(=O)CC(C)(C)C3)=C(O)C1
- EC50 [2]: > 260 µM (inactive)

SMILES: CN(C)c1ccc(-c2nc(NCCN3CCOCC3)c3ccccc3n2)cc1
- AC50 (Cytochrome P450 2C19; read-out: AC50): 39.8 µM (inconclusive)
- AC50 (Cytochrome P450 2D6): 25.1 µM (inconclusive)
- AC50 (Cytochrome P450 3A4): 12.6 µM (inconclusive)

SMILES: FC(F)Sc1ccc(NC2=NN=C(c3ccc4c(c3)OCCO4)CS2)cc1
- EC50 [3]: 1.99 µM (active)
- EC50 [4]: 6.72 µM (active)
- AC50 (INS1): 4.4 µM (active)
- AC50 (Cytochrome P450 2D6): 14.1 µM (inconclusive)
- AC50 (Cytochrome P450 1A2): 35.5 µM (inconclusive)

SMILES: O=C1CN(c2nc(-c3cccs3)nc3sc4c(c23)CCCC4)CCN1
- CC50 [5]: > 50 µM (active)
- EC50 [6]: 9.49 µM (active)
- EC50 [7]: 15.2 µM (active)
- EC50 (H4): 21 µM (active)

SMILES: CCOc1ccc(C(=O)NC(=S)N(Cc2ccccc2)Cc2ccccc2)cc1
- EC50 [8]: 2.46 µM (active)
- EC50 (Streptokinase A): > 150 µM (not active)
- EC50 (Streptococcus): 7.11 µM (active)
- AC50 (Cytochrome P450 2D6): 6.31 µM (inconclusive)

SMILES: Oc1c2c(nc3cc(-c4cccc(F)c4)nn13)CCC2
- EC50 [2]: > 260 µM (inactive)

SMILES: COCCOC(=O)N/C=C\c1nc(O)c2ccccc2n1
- IC50 (H9c2): > 79 µM (inactive)

SMILES: CN(Cc1ccco1)c1ncnc2ccc(-c3cccc(C#N)c3)cc12
- AC50 (Cytochrome P450 2D6): 25.1 µM (inconclusive)
- AC50 (Cytochrome P450 3A4): 31.6 µM (inconclusive)
- AC50 (Cytochrome P450 2C9): 1.58 µM (inconclusive)

SMILES: COc1cccc(C(=O)N(Cc2ccccc2)Cc2cc3cc4c(cc3nc2O)OCCO4)c1
- AC50 (Cytochrome P450 2D6): 0.224 µM (inconclusive)

SMILES: CN(C)c1nc(N)nc(CSc2nnnn2-c2ccc(F)cc2)n1
- EC50 [2]: > 260 µM (inactive)

SMILES: COc1cc(C(=O)Nc2ccc(NC(=O)c3cccc(Cl)c3)nc2)cc(OC)c1OC
- IC50 (H9c2): 8.67 µM (active)

SMILES: FC(F)(F)c1ccc(-c2noc(CN3CCCN(C4CCCCC4)CC3)n2)cc1
- AC50 [1]: 1.79 µM (active)

SMILES: O=S(=O)(Nc1ccc2c(c1)OCCO2)c1cccs1
- EC50 [6]: 14.8 µM (active)
- EC50 [7]: 10.9 µM (active)
- EC50 (H4): 10.8 µM (active)
- EC50 [9]: 2.91 µM (active)

SMILES: Cc1ccc(-c2noc(CCC(=O)Nc3cc(C)ccn3)n2)cc1
- EC50 [2]: > 260 µM (inactive)

SMILES: O=C(Nc1nc(-c2cccc3ccccc23)cs1)c1ccc2c(c1)S(=O)(=O)c1ccccc1C2=O
- AC50 [1]: 3.99 µM (active)

SMILES: CCOC(=O)C1=C(C)N=C(C)/C(=C(/O)OCC)C1C(=O)OCC(=O)NC1CCCCC1 (stereo not drawn)
- IC50 (H9c2): 7.69 µM (active)

SMILES: C=CCC[C@H](Cc1ccc(F)cc1)C(=O)OC[C@@H](Cc1c[nH]c2ccccc12)NC(=O)[C@@H](CC=C)CC(=O)NCCO
- IC50 (H9c2): > 79 µM (inactive)

SMILES: COc1ccc(-c2ccc3c(c2)S(=O)(=O)c2cccc(C(=O)N4CCN(c5ccccn5)CC4)c2C3=O)cc1OC
- IC50 (H9c2): 15 µM (active)

SMILES: O=c1c(O)c(-c2ccccc2)oc2cc(O)ccc12
- IC50 (H9c2): > 79 µM (inactive)

SMILES: C/C(=N\NC(=O)c1ccoc1C)c1cccc2ccccc12
- EC50 [2]: > 260 µM (inactive)

SMILES: O=c1c2cnn(-c3ccccc3)c2nnn1/N=C/c1cccnc1
- AC50 (Cytochrome P450 2C19): inconclusive
- AC50 (Cytochrome P450 2D6): 11.2 µM (inconclusive)
- AC50 (Cytochrome P450 1A2): 3.16 µM (inconclusive)

SMILES: COc1cc(OC)c(OC)cc1/C=N\CC1(c2ccccc2)CCCC1
- AC50 (Cytochrome P450 2D6): 28.2 µM (inconclusive)
- AC50 (Cytochrome P450 3A4): 25.1 µM (inconclusive)

SMILES: COc1ccccc1CNCCCCCCNCCCCCCCCNCCCCCCNCc1ccccc1OC [METHOCTRAMINE]
- AC50 (Cytochrome P450 2D6): 31.6 µM (inconclusive)
- AC50 (Cytochrome P450 3A4): 10 µM (inconclusive)

— ChEMBL document CHEMBL1201862, “PubChem BioAssay data set” (2004)
